Reference: patent US6660772B2, “Use of 2-amino-1-(4-hydroxy-2-methanesulfonamidophenyl)ethanol for treating urinary incontinence” (Boehringer Ingelheim Pharma KG, priority 2001, dated 2003)

Test system: dog
Experiment: Activity (maximum contraction) in the dog compared with noradrenaline
Conditions: percentage of contraction compared with noradrenaline
Description: The efficacy and selectivity of the compound according to the invention is determined as follows, using the same findings as described in 1:
Maximum contraction in the dog and activity on human urethra are percentages of contraction compared with noradrenaline. Selectivity in the dog is the difference obtained from the percentage contraction of the dog's femoral artery at 10^−5 M and percentage contraction of the carotid artery in the dog at 10^−5 M.

CS(=O)(=O)Nc1ccc(F)c([C@@H](O)CN)c1 [Compound 2, (−)-R-2-Amino-1-(2-fluoro-5-methanesulfonamidophenyl)ethanol]
Activity in the Dog (maximum contraction): 79%

CS(=O)(=O)Nc1cc(C(O)CN)ccc1O (centres unmarked) [Compound 1, 2-amino-1-(4-hydroxy-3-methanesulfonamidophenyl)ethanol]
Activity in the Dog (maximum contraction): 103%
